This assay addresses T1, Kv1.5 potassium channel (Homo sapiens, UniProt P22460).
T1 construct: expressed in transfected cells
The assay can be described thus: Patch clamp, CHO cells stably expressing Kv1.5. Format: cell-based. The method, then: The cDNA coding for Kv1.5 (GenBank Acc. No. M55513) was cloned into the pcDNA6-vector (Invitrogen, Leek, Netherlands). A C-terminal epitope-tag was introduced via PCR. The plasmid was sequenced and subsequently introduced into cells. Clonal cell lines stably expressing the Kv1.5 channel were established. Expression of protein was analysed by means of immunofluorescence using antibodies directed against the epitope-tag. The functional expression of the ion channels was validated electrophysiologically.
The experiments were performed using CHO cells stably expressing the Kv 1.5 potassium channel.
Cells were grown at 37° C. and 5% CO2 in 25 ml flasks (Greiner Bioone, Cellstar, Cat. No. 690160) in 6 ml MEM ALPHA Medium (Sigma, Taufkirchen, Germany, Cat No M8042) supplemented with 10% (v/v) heat inactivated fetal calf serum (Sigma, Cat. No. F9665), 1% (v/v) P/S/G-solution (Sigma, Cat. No. G6784) and G-418 (750 μg per millilitre medium; Sigma, Germany, Cat. No. A1720; 50 mg/ml in water, Sigma, Germany, Cat. No. W3500).
From a HP of −60 mV cells were hyperpolarised for 100 ms to −70 mV, followed by a 500 ms depolarisation to +50 mV. The current amplitude at the end of the test pulse to +50 mV was used for the analysis. Pulse cycling rate was 10 s (0.1 Hz).
The application protocol of test compounds is depicted in FIG. 4. The first 14 stimuli were required to achieve steady state of the current amplitude. Unspecific current reduction was calculated and served for correcting procedures during data analysis. After the 14th stimulus the test compound application was started (indicated by an arrow) via teflon and silicone tubings and was assumed to reach the cell after 6 additional stimuli. The perfusion is adjusted by using a defined drop rate of 10 drops per 10-12 s. Up to three concentrations were applied successively to one cell followed by a wash period of 5 minutes. Total number of stimuli was 140. Effect of the test compound was analysed between stimulus nos. 21 and 50 (5 min., long dashed line) for the first concentration, between stimulus nos. 51 and 80 (5 min., short dashed line) for an additional 5 minutes. If the cell was still stable, a wash was added afterwards. Start of test compound application at the given concentration is indicated by arrows. Number of stimuli of each single episode are shown in the protocol of FIG. 4.
Vehicle (DMSO) control experiments were performed during study period and under identical conditions to verify the stability of current over time and to value cell condition.
The effects of the test compounds were investigated at one concentration (2 or 1 μM) on the Kv1.5-mediated potassium channel.

Where [1] appears, read: concentration cell empty (text: 2 or 1 μM).

This note sets out measurements from US20080039442A1, “Compounds With Kv4 Ion Channel Activity” (Devgen NV, priority 2004, published 2008).

T1 sequence (P22460 whole entry): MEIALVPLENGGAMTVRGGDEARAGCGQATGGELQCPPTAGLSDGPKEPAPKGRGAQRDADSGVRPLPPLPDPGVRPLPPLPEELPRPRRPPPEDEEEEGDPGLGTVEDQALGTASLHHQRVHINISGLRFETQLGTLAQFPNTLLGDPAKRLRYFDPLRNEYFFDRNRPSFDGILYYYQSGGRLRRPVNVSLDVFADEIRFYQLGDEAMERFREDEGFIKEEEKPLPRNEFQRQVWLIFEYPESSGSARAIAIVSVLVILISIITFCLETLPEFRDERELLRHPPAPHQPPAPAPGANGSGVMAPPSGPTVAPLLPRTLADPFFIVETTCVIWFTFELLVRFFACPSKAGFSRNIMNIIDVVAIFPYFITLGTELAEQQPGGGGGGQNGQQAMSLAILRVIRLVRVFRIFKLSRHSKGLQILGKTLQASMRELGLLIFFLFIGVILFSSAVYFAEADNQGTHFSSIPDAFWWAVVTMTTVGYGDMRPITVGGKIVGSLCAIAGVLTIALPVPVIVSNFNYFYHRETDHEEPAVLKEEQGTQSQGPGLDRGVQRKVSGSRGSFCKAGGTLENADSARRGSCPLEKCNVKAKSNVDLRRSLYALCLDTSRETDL

On to “5-chloro-benzofuran-2- carboxylic acid 2,4- dimethoxy- benzylamide [Compound 2]”, for which, for the setting “2 μM, fraction, % in brackets”, the “Relative remaining current (mean after 8-10 min)” value is recorded as 0.66 (66%) and the “Relative remaining current (mean after 5 min)” value is listed as 0.88 (88%).

On to `O=C(NCc1ccc(OC(F)(F)F)cc1)c1cc2cc(Cl)ccc2o1` [Compound 89, 5-chloro-benzofuran-2-carboxylic acid 4-trifluoromethoxy-benzylamide], for which the “Relative remaining current (mean after 8-10 min)” value under setting [1] came out at 82%.

As for `Cc1c(C(=O)NCc2ccc(F)c(C(F)(F)F)c2)sc2ccc(Cl)cc12` [Compound 107, 5-chloro-3-methyl-benzo[b]thiophene-2-carboxylic acid 4-fluoro-3-trifluoromethyl-benzylamide], the “Relative remaining current (mean after 8-10 min)” value under setting [1] was found to be 89%.
